These results are taken from patent publication USRE50528E1, “Compounds and compositions for modulating EGFR mutant kinase activities” (Yuhan Corporation, priority 2014, dated 2025).

Assay [1] has as its system H1975 (EGFR L858R/T790M mutant). Briefly: Cell viability assay, H1975.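 As to all read-outs here: NSCLC cells whose survival relies on EGFR L858R/T790M, exposed 72 h to serially diluted compound, ATP-based viability readout, with the H2073 line (wildtype EGFR dependent) as wildtype comparator.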 It counts as cell-based. The conditions noted are these: for IC50: Homo sapiens, NCI-H1975, cellular potency, 72-hour incubation, ATPLite, read-out: EGFR Mutants H1975; for Selectivity over wildtype, Wildtype vs mutant H2073/H1975 (fold): cellular potency ratio.
For another assay, the target named is T1, SYK (Homo sapiens, UniProt P43405).
T1 construct: Purified human, full-length SYK, KDR; purchased Carna Biosciences
Briefly: Kinase inhibition assay, SYK.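 Also: purified full-length human SYK pre-incubated 30 min with compound, then ULight-TK peptide phosphorylation for 1 h, detected with Europium-labeled antibody in Lance buffer.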 It counts as biochemical. As to conditions: biochemical potency.

The next assay concerns the target T2, EGFR mutant L858R (Homo sapiens, UniProt P00533, L858R).
T2 construct: truncated human JAK3, EGFR mutants such as del E746-A750; purchased Carna Biosciences
The experiment in a line: Kinase inhibition assay, EGFR L858R.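 Also: truncated human EGFR L858R kinase with compound preincubation, ULight-PolyGT peptide phosphorylation read by Europium-antibody Lance detection, IC50.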 It counts as biochemical. As to conditions: read-out: EGFR mutants L858R.

A further assay addresses T3, EGFR mutant L858R/T790M (Homo sapiens, UniProt P00533, L858R/T790M).
T3 construct: truncated human JAK3, EGFR mutants such as del E746-A750; purchased Carna Biosciences
Briefly: Kinase inhibition assay, EGFR L858R/T790M.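 Also: truncated human enzyme preincubated two hours with compound, then one hour with one millimolar ATP and ULight-PolyGT peptide, Europium-labeled antibody detection, IC50.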 It counts as biochemical. As to conditions: read-out: EGFR mutants L858R/T790M.

In assay [2] the target is T4, EGFR mutant Del19 (E746-A750) (Homo sapiens, UniProt P00533, DEL746-750).
T4 construct: truncated human JAK3, EGFR mutants such as del E746-A750; purchased Carna Biosciences
T4 sequence (P00533 with tags, fused parts or gaps DEL746-750 limits assumed): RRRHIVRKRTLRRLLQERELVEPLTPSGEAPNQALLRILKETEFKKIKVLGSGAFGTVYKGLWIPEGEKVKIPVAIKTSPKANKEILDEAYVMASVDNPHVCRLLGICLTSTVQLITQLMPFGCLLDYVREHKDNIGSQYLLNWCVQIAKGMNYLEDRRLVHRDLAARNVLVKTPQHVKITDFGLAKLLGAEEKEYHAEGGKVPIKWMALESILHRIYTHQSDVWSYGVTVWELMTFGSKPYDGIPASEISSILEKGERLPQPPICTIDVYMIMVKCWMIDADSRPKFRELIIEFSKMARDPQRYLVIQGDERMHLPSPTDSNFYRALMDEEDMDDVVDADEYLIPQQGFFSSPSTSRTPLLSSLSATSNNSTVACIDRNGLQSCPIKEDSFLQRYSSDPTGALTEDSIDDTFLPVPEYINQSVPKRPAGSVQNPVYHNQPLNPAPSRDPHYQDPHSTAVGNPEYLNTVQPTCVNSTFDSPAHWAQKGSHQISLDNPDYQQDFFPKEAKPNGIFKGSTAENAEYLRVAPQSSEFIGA
The experiment in a line: Kinase inhibition assay, EGFR del E746-A750.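 Also: truncated human EGFR mutant kinase, two-hour preincubation with compound, then one-hour reaction with ATP and ULight-PolyGT peptide, LANCE Europium-antibody phosphorylation readout, IC50.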 It counts as biochemical. As to conditions: read-out: EGFR mutants Del19 (E746-A750).

The next assay relates to H2073 (EGFR wildtype). Briefly: Cell viability assay, H2073.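 Also: NSCLC cell line whose survival relies on wildtype EGFR, treated with serially diluted compound, cytotoxic effect judged from remaining cell viability.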 It counts as cell-based. As to conditions: NCI-H2073; cellular potency; 72-hour incubation; ATPLite. (In general: In ATP-based viability assays light output follows the ATP content of the culture.)
Another assay has as its target T5, EGFR mutant T790M (Homo sapiens, UniProt P00533, T790M).
T5 construct: truncated human JAK3, EGFR mutants such as del E746-A750; purchased Carna Biosciences
Briefly: Kinase inhibition assay, EGFR mutant T790M.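 Also: truncated human EGFR mutant enzyme preincubated two hours with compound, then ATP plus ULight-PolyGT peptide for one hour, Europium-labeled antibody LANCE detection, IC50.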 As to conditions: biochemical potency.

Assay [3] relates to PC9 (EGFR del E746-A750 mutant). Briefly: Cell viability assay, PC9.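 As to all read-outs here: NSCLC PC9 cells, whose viability relies on EGFR del E746-A750, exposed to serially diluted compound for 72 h at 37 °C, ATPLite read-out, IC50, H2073 as EGFR wildtype line.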 The conditions noted are these: for Selectivity over wildtype, Wildtype vs mutant H2073/PC9 (fold): cellular potency ratio; for IC50: cellular potency, 72-hour incubation, ATPLite, read-out: EGFR Mutants PC9. It is filed as cell-based.
For a further assay, the target named is T6, EGFR mutant Del19/T790M (Homo sapiens, UniProt P00533, DEL746-750/T790M).
T6 construct: truncated human JAK3, EGFR mutants such as del E746-A750; purchased Carna Biosciences
T6 sequence (P00533 with tags, fused parts or gaps DEL746-750/T790M limits assumed): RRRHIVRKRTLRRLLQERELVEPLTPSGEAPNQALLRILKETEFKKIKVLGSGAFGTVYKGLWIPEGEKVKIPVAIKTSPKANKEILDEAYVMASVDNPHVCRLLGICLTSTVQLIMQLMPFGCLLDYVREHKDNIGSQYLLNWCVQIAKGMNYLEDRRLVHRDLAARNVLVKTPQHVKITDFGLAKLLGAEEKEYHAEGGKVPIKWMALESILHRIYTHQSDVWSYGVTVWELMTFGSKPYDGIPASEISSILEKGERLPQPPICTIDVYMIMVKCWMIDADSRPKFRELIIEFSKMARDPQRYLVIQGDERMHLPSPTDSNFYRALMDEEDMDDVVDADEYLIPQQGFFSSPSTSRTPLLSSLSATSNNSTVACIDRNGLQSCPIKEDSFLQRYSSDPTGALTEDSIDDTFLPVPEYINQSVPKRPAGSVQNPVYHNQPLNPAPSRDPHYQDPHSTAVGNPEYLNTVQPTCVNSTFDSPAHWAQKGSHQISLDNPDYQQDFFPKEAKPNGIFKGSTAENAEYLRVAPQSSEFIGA
The experiment in a line: Kinase inhibition assay, EGFR del E746-A750/T790M. It is filed as biochemical. As to conditions: read-out: EGFR mutants Del19/T790M.

T2 sequence (P00533 669-1210 L858R limits assumed): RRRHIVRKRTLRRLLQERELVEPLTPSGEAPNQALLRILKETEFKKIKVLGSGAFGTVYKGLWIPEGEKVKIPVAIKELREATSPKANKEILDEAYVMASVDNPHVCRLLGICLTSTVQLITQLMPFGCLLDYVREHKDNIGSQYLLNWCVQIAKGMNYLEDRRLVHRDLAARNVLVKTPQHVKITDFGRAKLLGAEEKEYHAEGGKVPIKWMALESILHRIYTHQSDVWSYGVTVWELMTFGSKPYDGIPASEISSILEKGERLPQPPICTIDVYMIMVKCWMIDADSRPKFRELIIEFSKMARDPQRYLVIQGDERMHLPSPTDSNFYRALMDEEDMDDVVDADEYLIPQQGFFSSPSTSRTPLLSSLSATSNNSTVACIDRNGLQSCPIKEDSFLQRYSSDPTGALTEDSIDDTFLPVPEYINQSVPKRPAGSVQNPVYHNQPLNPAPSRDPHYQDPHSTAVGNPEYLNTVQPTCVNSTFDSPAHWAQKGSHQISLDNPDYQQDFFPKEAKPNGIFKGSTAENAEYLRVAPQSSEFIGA
T3 sequence (P00533 669-1210 T790M/L858R limits assumed): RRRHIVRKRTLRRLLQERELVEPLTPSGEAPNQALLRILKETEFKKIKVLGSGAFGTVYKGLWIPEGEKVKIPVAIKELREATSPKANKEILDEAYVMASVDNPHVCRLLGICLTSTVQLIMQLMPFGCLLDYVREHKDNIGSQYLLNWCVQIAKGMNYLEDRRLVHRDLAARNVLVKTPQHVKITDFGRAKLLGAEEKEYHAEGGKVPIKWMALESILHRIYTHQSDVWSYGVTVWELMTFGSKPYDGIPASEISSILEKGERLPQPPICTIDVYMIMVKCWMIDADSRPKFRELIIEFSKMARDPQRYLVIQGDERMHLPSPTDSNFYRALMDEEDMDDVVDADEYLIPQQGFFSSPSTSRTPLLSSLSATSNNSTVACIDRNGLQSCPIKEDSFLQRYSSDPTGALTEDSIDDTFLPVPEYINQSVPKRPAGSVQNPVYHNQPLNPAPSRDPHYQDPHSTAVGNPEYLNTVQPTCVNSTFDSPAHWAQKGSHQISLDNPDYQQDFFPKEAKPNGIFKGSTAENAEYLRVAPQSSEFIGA
T5 sequence (P00533 669-1210 T790M limits assumed): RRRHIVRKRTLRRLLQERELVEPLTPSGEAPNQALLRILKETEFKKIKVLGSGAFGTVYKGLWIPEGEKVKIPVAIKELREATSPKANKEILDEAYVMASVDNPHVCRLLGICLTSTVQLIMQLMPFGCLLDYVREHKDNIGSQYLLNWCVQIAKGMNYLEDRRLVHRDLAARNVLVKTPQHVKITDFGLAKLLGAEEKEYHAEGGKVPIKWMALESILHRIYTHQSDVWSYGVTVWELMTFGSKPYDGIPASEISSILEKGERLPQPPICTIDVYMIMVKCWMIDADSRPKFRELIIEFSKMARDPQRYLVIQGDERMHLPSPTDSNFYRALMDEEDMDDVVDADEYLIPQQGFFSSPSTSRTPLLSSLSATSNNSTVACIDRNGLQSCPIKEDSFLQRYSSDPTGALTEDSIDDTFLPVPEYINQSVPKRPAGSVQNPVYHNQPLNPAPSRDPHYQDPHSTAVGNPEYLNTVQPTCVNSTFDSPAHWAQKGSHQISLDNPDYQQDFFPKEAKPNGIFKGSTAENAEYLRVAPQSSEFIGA

Regarding `C=CC(=O)Nc1cc(Nc2nccc(-n3cc(CN(C)CC)c(-c4ccccc4)n3)n2)c(OC)cc1N1CCOCC1` [Compound 92, N-(5-(4-(4-((ethyl(methyl)amino)methyl)-3-phenyl-1H-pyrazol-1-yl)pyrimidin-2-ylamino)-4-methoxy-2-morpholinophenyl)acrylamide], the IC50 is below 20 nM in assay [1]; above 1000 nM against SYK; below 20 nM on EGFR mutant L858R; below 20 nM on EGFR mutant L858R/T790M; below 20 nM in [2]; above 1000 nM in the assay with H2073 (EGFR wildtype). For the same compound, the IC50 (on EGFR mutant T790M; in assay [3]; on EGFR mutant Del19/T790M) was below 20 nM each time. For the same compound, the “Selectivity over wildtype, Wildtype vs mutant H2073/H1975 (fold)” value (shortened to “Selectivity … vs mutant H2073/H1975 (fold)”) in assay [1] is listed as above 200 fold. The “Selectivity over wildtype, Wildtype vs mutant H2073/PC9 (fold)” value (“Selectivity … vs mutant H2073/PC9 (fold)” below) in [3] was above 200 fold.
In the case of `C=CC(=O)Nc1cc(Nc2nccc(-n3cc(CN(C)C)c(C(C)C)n3)n2)c(OC)cc1N1CCOCC1` [Compound 93, N-(5-(4-(4-((dimethylamino)methyl)-3-isopropyl-1H-pyrazol-1-yl)pyrimidin-2-ylamino)-4-methoxy-2-morpholinophenyl)acrylamide], the IC50 was below 20 nM in assay [1]; above 1000 nM against SYK; below 20 nM on EGFR mutant L858R; below 20 nM at EGFR mutant L858R/T790M; below 20 nM in assay [2]; 201 to 1000 nM in the assay with H2073 (EGFR wildtype). In addition, the IC50 (against EGFR mutant T790M; in assay [3]; at EGFR mutant Del19/T790M) was below 20 nM throughout. The “Selectivity … vs mutant H2073/H1975 (fold)” value in [1] is reported as 20-200 fold. In [3], the “Selectivity … vs mutant H2073/PC9 (fold)” value was 20-200 fold.
Consider `C=CC(=O)Nc1cc(Nc2nccc(-n3cc(CN(C)C)c(C(C)(C)C)n3)n2)c(OC)cc1N(C)CCOC` [Compound 100, N-(5-(4-(3-tert-butyl-4-((dimethylamino)methyl)-1H-pyrazol-1-yl)pyrimidin-2-ylamino)-4-methoxy-2-((2-methoxyethyl)(methyl)amino)phenyl)acrylamide], for which the IC50 in assay [1] is 20 to 200 nM; against SYK it was above 1000 nM; at EGFR mutant L858R it was below 20 nM; at EGFR mutant L858R/T790M, below 20 nM; in assay [2], below 20 nM; in the assay with H2073 (EGFR wildtype), above 1000 nM. For the same compound, the figures for the IC50 (on EGFR mutant T790M; in assay [3]; on EGFR mutant Del19/T790M) were 20 to 200 nM, 20 to 200 nM and below 20 nM, respectively. In addition, the “Selectivity … vs mutant H2073/H1975 (fold)” value in [1] is given as 101-200 fold. Further, the “Selectivity … vs mutant H2073/PC9 (fold)” value in assay [3] is reported as 101-200 fold.
Regarding `C=CC(=O)Nc1cc(Nc2nccc(-n3cc(CN(C)C)c(C4CC4)n3)n2)c(OC)cc1N(C)CCOC` [Compound 106, N-(5-(4-(3-cyclopropyl-4-((dimethylamino)methyl)-1H-pyrazol-1-yl)pyrimidin-2-ylamino)-4-methoxy-2-((2-methoxyethyl)(methyl)amino)phenyl)acrylamide], the IC50 was 20 to 200 nM in assay [1]; 20 to 200 nM against SYK; below 20 nM at EGFR mutant L858R; below 20 nM at EGFR mutant L858R/T790M; below 20 nM in assay [2]; above 1000 nM in the assay on H2073 (EGFR wildtype). Further, the values for the IC50 (against EGFR mutant T790M; in assay [3]; at EGFR mutant Del19/T790M) were below 20 nM, 20 to 200 nM and below 20 nM, respectively. Further, in assay [1], the “Selectivity … vs mutant H2073/H1975 (fold)” value is on record as 101-200 fold. In addition, the “Selectivity … vs mutant H2073/PC9 (fold)” value in assay [3] is 101-200 fold.
With `C=CC(=O)Nc1cc(Nc2nccc(-n3cc(CN4CCC4)c(-c4cccs4)n3)n2)c(OC)cc1N1CCOCC1` [Compound 118, N-(5-(4-(4-(azetidin-1-ylmethyl)-3-(thiophen-2-yl)-1H-pyrazol-1-yl)pyrimidin-2-ylamino)-4-methoxy-2-morpholinophenyl)acrylamide], the IC50 is below 20 nM in [1]; 20 to 200 nM against SYK; below 20 nM at EGFR mutant L858R; below 20 nM at EGFR mutant L858R/T790M; below 20 nM in [2]; 201 to 1000 nM in the assay on H2073 (EGFR wildtype). The IC50 (at EGFR mutant T790M; in assay [3]; on EGFR mutant Del19/T790M) was below 20 nM each time. The “Selectivity … vs mutant H2073/H1975 (fold)” value in assay [1] is recorded as 20-200 fold. The “Selectivity … vs mutant H2073/PC9 (fold)” value in assay [3] was 20-200 fold.
Take `Cc1cc(C)cc(Nc2nccc(-n3cc(CN4CC(O)C4)c(C)n3)n2)c1` [Compound 147, 1-((1-(2-(3,5-dimethylphenylamino)pyrimidin-4-yl)-3-methyl-1H-pyrazol-4-yl)methyl)azetidin-3-ol, reference compound]: the IC50 in assay [1] is above 1000 nM; against SYK it was 20 to 200 nM; at EGFR mutant L858R it was above 1000 nM; at EGFR mutant L858R/T790M, 201 to 1000 nM; in assay [2], above 1000 nM; in the assay on H2073 (EGFR wildtype), above 1000 nM. The IC50 (against EGFR mutant T790M; in assay [3]; on EGFR mutant Del19/T790M) was above 1000 nM each time. In [1], the “Selectivity … vs mutant H2073/H1975 (fold)” value is recorded as below 20 fold. In assay [3], the “Selectivity … vs mutant H2073/PC9 (fold)” value was below 20 fold.
`Cc1cc(Nc2nccc(-n3cc(CN4CC[C@@H](O)C4)c(C)n3)n2)cc(C)c1OCCN1CCCC1` [Compound 148, (R)-1-((1-(2-(3,5-dimethyl-4-(2-(pyrrolidin-1-yl)ethoxy)phenylamino)pyrimidin-4-yl)-3-methyl-1H-pyrazol-4-yl)methyl)pyrrolidin-3-ol, reference compound]: the IC50 is above 1000 nM in assay [1]; 201 to 1000 nM on SYK; above 1000 nM on EGFR mutant L858R; 201 to 1000 nM at EGFR mutant L858R/T790M; above 1000 nM in assay [2]; above 1000 nM in the assay on H2073 (EGFR wildtype). Moreover, the IC50 against EGFR mutant T790M was above 1000 nM; in assay [3] it was above 1000 nM; at EGFR mutant Del19/T790M, 201 to 1000 nM. Further, in assay [1], the “Selectivity … vs mutant H2073/H1975 (fold)” value is recorded as below 20 fold. For the same compound, the “Selectivity … vs mutant H2073/PC9 (fold)” value in assay [3] is recorded as below 20 fold.
Turning to `Cc1cc(Nc2nccc(-n3cc(CN4CC(O)C4)c(C)n3)n2)cc(C)c1OCCO` [Compound 149, 1-((1-(2-(4-(2-hydroxyethoxy)-3,5-dimethylphenylamino)pyrimidin-4-yl)-3-methyl-1H-pyrazol-4-yl)methyl)azetidin-3-ol, reference compound], the IC50 is above 1000 nM in assay [1]; above 1000 nM against SYK; above 1000 nM at EGFR mutant L858R; 201 to 1000 nM on EGFR mutant L858R/T790M; above 1000 nM in [2]; above 1000 nM in the assay with H2073 (EGFR wildtype). Further, the IC50 (at EGFR mutant T790M; in assay [3]; at EGFR mutant Del19/T790M) was above 1000 nM each time. In addition, in [1], the “Selectivity … vs mutant H2073/H1975 (fold)” value is reported as below 20 fold. In addition, the “Selectivity … vs mutant H2073/PC9 (fold)” value in [3] is recorded as below 20 fold.
With `Cc1cc(Nc2nccc(-n3cc(CN4CC(O)C4)c(C4CC4)n3)n2)cc(C)c1OCCO` [Compound 151, 1-((3-cyclopropyl-1-(2-(4-(2-hydroxyethoxy)-3,5-dimethylphenylamino)pyrimidin-4-yl)-1H-pyrazol-4-yl)methyl)azetidin-3-ol, reference compound], the IC50 in assay [1] was above 1000 nM; on SYK, 201 to 1000 nM; on EGFR mutant L858R, 20 to 200 nM; at EGFR mutant L858R/T790M, 20 to 200 nM; in assay [2], above 1000 nM; in the assay on H2073 (EGFR wildtype) it was above 1000 nM. For the same compound, the IC50 against EGFR mutant T790M was above 1000 nM; in assay [3], above 1000 nM; on EGFR mutant Del19/T790M, 201 to 1000 nM. In addition, the “Selectivity … vs mutant H2073/H1975 (fold)” value in assay [1] is listed as below 20 fold. Also, the “Selectivity … vs mutant H2073/PC9 (fold)” value in assay [3] is on record as below 20 fold.
On to `CCC(=O)Nc1cc(Nc2nccc(-n3cc(CN(C)C)c(-c4ccccc4)n3)n2)c(OC)cc1N1CCOCC1` [Compound 157, N-(5-(4-(4-((dimethylamino)methyl)-3-phenyl-1H-pyrazol-1-yl)pyrimidin-2-ylamino)-4-methoxy-2-morpholinophenyl)propionamide, reference compound], for which the IC50 (in assay [1]; against SYK; on EGFR mutant L858R; at EGFR mutant L858R/T790M; in assay [2]; in the assay with H2073 (EGFR wildtype)) was above 1000 nM in each case. Also, the IC50 (on EGFR mutant T790M; in [3]; on EGFR mutant Del19/T790M) was above 1000 nM each time. Further, the “Selectivity … vs mutant H2073/H1975 (fold)” value in assay [1] is listed as below 20 fold. Also, the “Selectivity … vs mutant H2073/PC9 (fold)” value in [3] was below 20 fold.
Turning to `CCC(=O)Nc1cc(Nc2nccc(-n3cc(CN4CCC4)c(-c4ccccc4)n3)n2)c(OC)cc1N1CCOCC1` [Compound 158, N-(5-(4-(4-(azetidin-1-ylmethyl)-3-phenyl-1H-pyrazol-1-yl)pyrimidin-2-ylamino)-4-methoxy-2-morpholinophenyl)propionamide, reference compound], the IC50 was 201 to 1000 nM in [1]; above 1000 nM at SYK; above 1000 nM at EGFR mutant L858R; above 1000 nM at EGFR mutant L858R/T790M; above 1000 nM in assay [2]; above 1000 nM with H2073 (EGFR wildtype). In addition, the IC50 was above 1000 nM at EGFR mutant T790M, 20 to 200 nM in [3] and above 1000 nM at EGFR mutant Del19/T790M. In addition, in assay [1], the “Selectivity … vs mutant H2073/H1975 (fold)” value is below 20 fold. Also, in [3], the “Selectivity … vs mutant H2073/PC9 (fold)” value was below 20 fold.
